US5292732A, “Pyrrolopyrazine derivatives” (Hoffmann-La Roche Inc., priority 1991, dated 1994)

Key:
MAO (substrate 5-HT) = molecular target: T1, MAO (substrate 5-HT) (Rattus norvegicus, UniProt P21396); test: MAO inhibition in vitro, rat brain homogenate, substrate 14C-labelled serotonin (5-HT); format: biochemical; settings: substrate 5-HT 2×10^-4 M, 37° C.
T1 construct: 20 μl of rat brain homogenate; from tissue; host or cells: rat brain homogenate
T1 sequence (P21396 1-526): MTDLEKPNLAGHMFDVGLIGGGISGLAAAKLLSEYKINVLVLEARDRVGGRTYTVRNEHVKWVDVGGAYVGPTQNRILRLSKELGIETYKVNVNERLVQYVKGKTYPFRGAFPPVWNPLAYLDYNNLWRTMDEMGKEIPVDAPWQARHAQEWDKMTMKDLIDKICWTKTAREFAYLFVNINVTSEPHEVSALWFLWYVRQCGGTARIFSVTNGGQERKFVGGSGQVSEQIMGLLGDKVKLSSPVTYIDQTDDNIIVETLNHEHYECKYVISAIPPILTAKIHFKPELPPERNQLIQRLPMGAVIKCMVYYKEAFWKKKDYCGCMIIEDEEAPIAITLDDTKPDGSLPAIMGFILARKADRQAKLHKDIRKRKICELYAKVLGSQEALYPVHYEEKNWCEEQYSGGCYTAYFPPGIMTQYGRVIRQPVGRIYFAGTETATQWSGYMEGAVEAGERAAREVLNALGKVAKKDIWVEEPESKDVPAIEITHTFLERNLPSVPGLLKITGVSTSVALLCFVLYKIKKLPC
Experimental: (§1) The MAO inhibiting activity of the compounds in accordance with the invention can be determined in vitro or ex vivo using standard methods. The preparations to be tested were investigated in the tests described hereinafter, which were based on the methods of R. J. Wurtmann and J. A. Axelrod [Biochem. Pharmac. 12, 1439-41 (1963).
(§2) Isolated rat brains are homogenized in 0.1 molar potassium phosphate buffer (pH 7.4) in the ratio 1:4 (weight/volume), the homogenate is diluted with the same buffer in the ratio 1:5 (volume/volume) and stored at -20° C. A mixture of the following composition was used for the incubation:
(§3) 100 μl of 1M phosphate buffer (pH 6.7);
(§4) 100 μl of solution of the substance to be tested in water or in 10% aqueous dimethyl sulphoxide;
(§5) 20 μl of rat brain homogenate; and as the substrate
(§6) 80 μl of ^14 C-labelled serotonin (5-HT) or ^14 C-labelled phenylethylamine (PEA), the radioactive concentration of which amounts to 100,000 decay per minute and which is used in a final concentration of 2×10^-4 M and, respectively, 2×10^-5 M.
(§7) A pre-incubation at 37° C. is effected for 30 minutes prior to the addition of the substrate. The incubation (in the presence of the substrate) is likewise effected at 37° C. and lasts for 10 minutes. The reaction is stopped by the addition of 200 μl of 2N hydrochloric acid.
(§8) In order to extract the desaminated product, the mixture is shaken for 10 minutes with 5 ml of diethyl ether or with 5 ml of n-heptane depending on whether 5-HT or PEA is used as the substrate, whereupon the mixture is centrifuged, the aqueous phase is frozen in a dry-ice bath, the organic phase is transferred into a counting glass and the radioactive concentration is determined in a β-counter.
(§9) The activity of the MAO in comparison to the control homogenates (without substance to be tested) is obtained on the basis of the β-values and the IC50 is defined as that concentration of a substance to be tested which reduces the activity of the MAO upon the substrate 5-HT or PEA by 50%.

MAO (substrate PEA) = molecular target: T2, MAO (substrate PEA) (Rattus norvegicus, UniProt P19643); test: MAO inhibition in vitro, rat brain homogenate, substrate 14C-labelled phenylethylamine (PEA); format: biochemical; settings: substrate PEA 2×10^-5 M, 37° C.
T2 construct: 20 μl of rat brain homogenate; from tissue; host or cells: rat brain homogenate
T2 sequence (P19643 1-520): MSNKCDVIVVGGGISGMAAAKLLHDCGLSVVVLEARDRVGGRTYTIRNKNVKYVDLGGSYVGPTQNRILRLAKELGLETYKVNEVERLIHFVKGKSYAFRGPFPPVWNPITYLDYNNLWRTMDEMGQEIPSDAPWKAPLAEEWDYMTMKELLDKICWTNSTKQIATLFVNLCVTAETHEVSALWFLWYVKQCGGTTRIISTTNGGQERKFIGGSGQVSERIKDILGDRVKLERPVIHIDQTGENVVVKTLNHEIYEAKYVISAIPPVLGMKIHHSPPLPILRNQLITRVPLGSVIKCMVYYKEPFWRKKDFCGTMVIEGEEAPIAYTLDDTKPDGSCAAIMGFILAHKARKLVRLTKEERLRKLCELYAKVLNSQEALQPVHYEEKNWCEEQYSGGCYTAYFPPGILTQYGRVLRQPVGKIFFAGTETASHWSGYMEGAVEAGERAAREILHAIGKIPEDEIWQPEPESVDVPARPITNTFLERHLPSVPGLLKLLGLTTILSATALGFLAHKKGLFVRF
Experimental: as §1, §2, §3, §4, §5, §6, §7, §8, §9

[1] = system: MAO in the brain (substrate 5-HT); test: MAO inhibition ex vivo in brain of rats, substrate 5-HT; set-up: species or system male albino rats (Fu-SPF); settings: rat, 100 μmol/kg orally, 2 hrs., given in percentage of the control values
Experimental: as §1
(§10) The compounds to be tested are investigated for the inhibition of MAO in the brain and liver of male albino rats (Fu-SPF, 100-140 g. The test compounds are administered orally as a solution or suspension in water in a dosage of 100 μmol per kilogram body weight. After 2 hrs. the animals are narcotized and decapitated. The brain (without cerebellum) and a portion of the liver are dissected out and submitted analogously to the above-described procedure for the determination of the MAO inhibiting activity, whereby the amount of enzyme used is 20 μl of a 1:20 homogenate in the case of brain and 20 μl of a 1:80 homogenate in the case of liver. The activity of the compounds is determined from a comparison of the β-values with the values for control animals treated with vehicle and is given in percentage of the control values.

[2] = system: MAO in the brain (substrate PEA); test: MAO inhibition ex vivo in brain of rats, substrate PEA; set-up: species or system male albino rats (Fu-SPF); settings: rat, 100 μmol/kg orally, 2 hrs., given in percentage of the control values
Experimental: as §1, §10

[3] = system: MAO in the liver (substrate 5-HT); test: MAO inhibition ex vivo in liver of rats, substrate 5-HT; set-up: species or system male albino rats (Fu-SPF); settings: rat, 100 μmol/kg orally, 2 hrs., given in percentage of the control values
Experimental: as §1, §10

[4] = system: MAO in the liver (substrate PEA); test: MAO inhibition ex vivo in liver of rats, substrate PEA; set-up: species or system male albino rats (Fu-SPF); settings: rat, 100 μmol/kg orally, 2 hrs., given in percentage of the control values
Experimental: as §1, §10

Compound	IC50 (MAO (substrate 5-HT)) [µM]	IC50 (MAO (substrate PEA)) [µM]	Remaining brain MAO activity, 5-HT (% of control) [1] [%]	Remaining brain MAO activity (PEA), % of control [2] [%]	MAO inhibition, Liver, 5HT [3] [%]	Remaining liver MAO activity (PEA), % of control [4] [%]
COc1ccc2c(c1)CCc1cc3n(c1-2)CCN=C3C [5,6,10,11-Tetrahydro-3-methoxy-8-methyl-benzo[g]pyrazino[1,2-a]indole]	0.0008	> 1	28	86	5	87
CC1=NCCn2c1cc1c2-c2ccc(Cl)cc2CC1 [3-Chloro-5,6,10,11-tetrahydro-8-methylbenzo[g]pyrazino[1,2-a]indole]	0.01	> 1	42	93	20	96
CC1=NCCn2c1ccc2-c1ccc(O[C@@H]2C[C@H]3CC[C@@H]2C3)cc1 (relative stereo) [3,4-Dihydro-1-methyl-6-[p-(2-exonorbornyloxy)phenyl]pyrrolo[1,2-a]pyrazine]	0.02	0.003	45	11	51	10
